Reference: patent publication EP0034471A1, “Piperidinoquinazolines and a process for the preparation thereof” (ORION-YHTYMÄ OY, priority 1980, dated 1981)
Structures can show the parent of a compound that is named as a salt.

Key:
[1] = tested on: Spontaneously hypertensive rats of the Okamoto-Aoki strain; experiment: Blood pressure lowering after oral administration in conscious spontaneously hypertensive rats (tail cuff, systolic pressure); format: in vivo; settings: for The decrease of the blood pressure (mmHg) induced by the dose of 0.5 µmol/rat p.o. 1h: 1 hour after administration; for The decrease of the blood pressure (mmHg) induced by the dose of 0.5 µmol/rat p.o. 2h: 2 hours after administration; for The decrease of the blood pressure (mmHg) induced by the dose of 0.5 µmol/rat p.o. 5h: 5 hours after administration
[2] = tested on: male Wistar rats; experiment: Blood pressure lowering after intravenous administration in urethane-anaesthetised rats (mean arterial pressure, femoral artery); format: in vivo; settings: maximal decrease of the blood pressure
Experimental: The effect of the compounds when administered intravenously was studied with male Wistar rats, 240-290 g,which were anaesthetised with urethane (1.5 g/kg intraperitoneally). A heating pad which is controlled by a thermostate connected to the colonic thermistor probe was placed underneath the rats to keep the body temperature at' 38°C. The trachea was cannulated with a polyethylene tube and the rats were allowed to breathe spontaneously. A femoral vein was cannulated for intravenous injections of drugs. […] The pressure . signals were amplified with a pressure conditioner (HP […]). The mean arterial pressure was recorded on paper with a . chart recorder. […] A dose of 0.1 μmol/kg was injected intravenously and the maximal decrease of the blood pressure (mmHg) was measured.

Row | SMILES | The decrease of the blood pressure (mmHg) induced by the dose of 0.5 µmol/rat p.o. 1h [1] [mmHg] | The decrease of the blood pressure (mmHg) induced by the dose of 0.5 µmol/rat p.o. 2h [1] [mmHg] | The decrease of the blood pressure (mmHg) induced by the dose of 0.5 µmol/rat p.o. 5h [1] [mmHg] | The decrease of the blood pressure (mmHg) induced by the dose of 0.1 µmol/kg i.v. [2] [mmHg]
1 | CCN(CC)C(=O)C1CCN(c2nc(N)c3cc(OC)c(OC)cc3n2)CC1 [A(R = diethylamino), 2-(4-diethylaminocarbonylpiperidino) 4- .amino-6,7-dimethoxyquinazoline, reference compound] | 24 | 16 | 10 | 37
2 | COc1cc2nc(N3CCC(C(=O)N4CCCCCC4)CC3)nc(N)c2cc1OC [1-azacycloheptyl, 2-(4-(azacyclohept-1-yl-carbonyl)piperi-dino)-4-amino-6,7-dimethoxyquinazoline hydrochloride] | 23 | 27 | 25 | 47
3 | COc1cc2nc(N3CCC(C(=O)NC(C)(C)C)CC3)nc(N)c2cc1OC.Cl [t-butylamino, 2-(4-tert-butylcarbamoylpiperidino)-4-amino-6,7-dimethoxyquinazoline hydrochloride] | 15 | 25 | 28 | 28
4 | COc1cc2nc(N3CCC(C(N)=O)CC3)nc(N)c2cc1OC.Cl [amino, 2-(4-carbamoylpiperidino)-4-amino-6,7-dimethoxyquinazoline hydrochloride] | 20 | 22 | 20 | 27
5 | COc1cc2nc(N3CCC(C(=O)OCC(C)(C)C)CC3)nc(N)c2cc1OC.Cl [neopentyloxy, 2-(4-neopentyloxycarbonylpiperidino)-4-amino-6,7-dimethoxyquinazoline hydrochloride] | 22 | 21 | 21 | 44
6 | COc1cc2nc(N3CCC(C(=O)N4CCOCC4)CC3)nc(N)c2cc1OC [B(R = morpholino), 2-(4-morpholinocarbonylpiperidino)-4-amino-6,7-dimethoxyquinazoline, reference compound] | 7 | 5 | -2 | 30
7 | COc1cc2nc(N3CCC(C(=O)N4CCCCC4C)CC3)nc(N)c2cc1OC.Cl (stereo not shown) [2-methylpiperidino, 2-(4-(2-methylpiperidino)carbonylpiperidino)-4-amino-6,7-dimethoxyquinazoline hydrochloride] | 15 | 25 | 28 | 31
8 | COc1cc2nc(N3CCN(C(=O)c4ccco4)CC3)nc(N)c2cc1OC [prazosin, 2-(4-(2-furoyl)-piperazin-l-yl)-4-amino-6,7-dimethoxyquinazoline, reference compound] | 26 | 31 | 24 | 36
9 | COc1cc2nc(N3CCC(C(=O)N4CCCCCCC4)CC3)nc(N)c2cc1OC [1-azacyclooctyl, 2-(4-(azacyclooct-1-yl-carbonyl)piperidino-4-amino-6,7-dimethoxyquinazoline hydrochloride] | 18 | 23 | 29 | 23
10 | COc1cc2nc(N3CCC(C(=O)N4CCCCC4)CC3)nc(N)c2cc1OC [piperidino, 2-(4-piperidinocarbonylpiperidino)-4-amino-6,7-dimethoxyquinazoline] | 25 | 22 | 17 | 32
